Results: patent publication US8961949B2, “Polymer-metal complex composite having MRI contrast ability and MRI contrasting and/or antitumor composition using the same” (Japan Science and Technology Agency, priority 2008, dated 2015)
“Also recorded” adds a separate entry of the source.

Legend:
[1] = tested on: human pancreatic cancer cells (BxPC3); assay: in vivo MRI in orthotopic transplantation model of BxPC3; set-up: species or system Nude mice; details: equal amounts of micelles and free Gd-DTPA
Description: Nude mice (female, 6 weeks of age) were laparotomized under inhalation anesthesia, injected with 0.1 ml of human pancreatic cancer cells (BxPC3) under the serous membrane of the pancreas and then kept for 1 month to prepare an orthotopic transplantation model. MRI was imaged with a 4.7 Tesla Superconductive Magnet Unit (Varian, Palo Alto, Calif.) VXR-MRI Console under the following imaging conditions: repetition time (TR): 500 ms, echo time (TE): 15 ms, field of view (FOV): 32 mm×32 mm, matrix size: 256×256, slice thickness: 2 mm to obtain Spin Echo T1w images. The mice were injected under 5% isoflurane inhalation anesthesia and maintained under 1.2% isoflurane anesthesia during imaging. […] Imaging was performed every 5 minutes during the first 1 hour after injection via the tail vein, then every 15 minutes for 4 hours. Moreover, an equal amount of free Gd-DTPA serving as a control was also injected via the tail vein and imaged in the same manner. The resulting images were analyzed by Mathematica (Wolfram Research Inc.) and Excel (Microsoft, Inc.).

[2] = blood at 1, 4, 8 and 24 hours after tail vein injection of 0.2 ml
Description: After collection, the blood was rapidly mixed with heparin to prevent coagulation, and then centrifuged to collect plasma only. The collected plasma was mixed with 90% HNO3, heated and dried, dissolved in 5N HCl, and then diluted appropriately, followed by ICP-MS to determine Gd and Pt contents.

[3] = tested on: human pancreatic cancer cells (BxPC3); assay: antitumor effect (tumor size) on subcutaneous BxPC3 tumor; format: in vivo, Nude mice; details: Pt 8 mg/ml

O=C([O-])CN(CCN(CC(=O)[O-])CC(=O)O)CCN(CC(=O)[O-])CC(=O)O.[Gd+3] [Gd-DTPA, gadolinium diethylene triamine pentaacetic acid]
contrast enhancement / intensity in tumor [1]: little contrast enhancement; also recorded: little increase in intensity
residual drug content in plasma / retention in blood [2]: rapidly disappear from plasma

O=C1[O][Pt]2([NH][C@@H]3CCCC[C@H]3[NH]2)[O]C1=O [oxaliplatin]
antitumor effect (tumor size), words ([3]; 0.2 ml i.v. on day 0, 2 and 4): substantially the same tendency as the control
antitumor effect (tumor size), words ([3]; 0.2 ml i.v. on day 0, 2 and 4, listed as Oxaliplatin): little therapeutic effect
residual drug content in plasma / retention in blood [2]: rapidly disappear from plasma
